For test [1], the system named is A3 cells. The experiment in a line: A3 cell numbers and viability. Format: cell-based, human. The method, then: Figure 4. Anticancer properties overlap between OGG1 loss and OGG1 inhibitors. (A) Viability of T-cell acute […] leukemia cell lines treated for 5 days with the indicated doses TH5487. Data are average ±SD of independent experiments (A3, n = 5; Jurkat, n = 3; MOLT-4, n = 4; CCRF-CEM, n = 3). (B) Relative cell numbers and (C) viability (%) for A3 cells treated for 5 days with 10 μM TH5487. Data are average ±SD of six replicates from three independent experiments. (D) Induction of apoptosis in A3 cells treated for 72 h TH5487 and stained for Annexin V. Data are average ±SD of three independent experiments. (E) A3 cells transfected with shRNA targeting OGG1 were treated with doxycycline for 6 days and stained for Annexin V. Data are average ±SD of two independent experiments. (F) Scheme for recovery experiment in which A3 OGG1-shRNA cells or A3 cells were silenced or inhibited for 6 days with doxycycline (200 nM) or TH5487 (10 μM). […] Data are average ±SD of 2–6 technical replicates representative of two independent experiments (I). Scheme for off-target effect evaluation in which A3 OGG1-shRNA cells were exposed to doxycycline for six days and after that, cells were exposed to TH5487 (10 μM) for 48 h followed by measurements of cell numbers (J) and viability by trypan blue exclusion (K). Data are average ±SD of two technical replicates from four independent experiments. Statistical significance was determined using unpaired, two-sided t-tests (*P < 0.05, **P < 0.01, ***P < 0.001, ****P < 0.0001, ns, non-significant).

The test system of test [2] is A3 cells. The experiment in a line: Cell cycle distribution by flow cytometry. Type of test: cell-based, human. To be noted: 10 μM. The method, then:
At the indicated time points, compound/dox treated cells were incubated in medium containing 10 μM 5-ethynyl-2′-deoxyuridine (EdU) (Thermo Fisher, A10044) for 20 min. Next, cells were fixed in cold 70% ethanol overnight. The azide alkyne Huisgen cycloaddition (‘Click reaction’) was carried out according to the Click-iT EdU Imaging Manual (Thermo Fisher) using various fluorescent dyes: Alexa Fluor® 488 azide (Thermo Fisher, A10266), Alexa Fluor® 647 azide (Thermo Fisher, A10277), or TAMRA azide (Thermo Fisher, T10182), depending on assay conditions. […] Data was analyzed using Kaluza® Flow Analysis Software (Beckman Coulter). […]
untreated parental HEK293T. […] Statistical significance was determined using Mann Witney test (**, P<0.01, ***, P<0.001 and ****, P<0.0001 , ns, non-significant).
Supplementary Fig. S6: 8 -oxodG levels and cell cycle distribution. […] The indicated shNT cells were treated with 250 ng/ml doxycycline for 0, 96, or 144 h, and the amount of genomic 8-oxodG was quantified with LC -MS/MS. […] Cells were treated with 10 µM TH5487 or an equivalent volume DMSO for the indicated times, and the cell cycle distribution was determined by flow cytometry. […] A3 shNT (grey), sh2 (blue), and sh3 (red), were treated with 250 ng/ml doxycycline for 48 –120 h, and the cell cycle distribution was determined with flow cytometry. […]
Background: In flow cytometry, cells or beads pass a laser one at a time.

Regarding `O=C(Nc1ccc(I)cc1)N1CCC(n2c(=O)[nH]c3c(Br)cccc32)CC1` [TH5487], the “Recovery of proliferation after release into fresh medium” value in the test on A3 cells [1] (A3 cells exposed for 6 days to 10 μM) is given as “able to divide normally”. Further, the Cell viability result in the test with A3 cells [1] (A3 cells, 10 μM, after 72 h) was “mild decrease in cell viability”. In the test with A3 cells [1] (A3 cells, 10 μM, up to 72 h), the “Proliferation (relative cell numbers)” value is reported as “slower proliferation”. In the test with A3 cells [2], the Cell cycle distribution entry is “remained largely constant” and the Sub-G1 population entry was “accumulation in the sub-G1 population”.

Source of the values: article PMC7708037, “Targeting OGG1 arrests cancer cell proliferation by inducing replication stress” (Nucleic Acids Research, 2020).
